Measurements taken from patent publication US5308766A (priority 1990, dated 1994).

Assays:
[1] = in vivo; cited from earlier work
PLA2 = settings: modification of lysine residues; cited from earlier work
[2] = molecular target: cobra venom phospholipase A2 (PLA2) (Naja naja, UniProt P15445); settings: cited from earlier work
[3] = molecular target: bee venom phospholipase A2 (PLA2) (Apis mellifera, UniProt P00630); settings: cited from earlier work
[4] = molecular target: phospholipase A2 obtained from cobra venom (Naja naja, UniProt P15445); assay type: biochemical
[5] = Stability of p-nitrophenyl esters in solvents; assay type: physicochemical; settings: polar solvents such as alcohols
Experimental: Pure samples of 1a-1e were obtained after HPLC chromatography using anhydrous MeOH to elute the lipid from a Brownlee C18 column. […] Storage of these compounds at -10° C. in CHCl3 or CH2 Cl2 greatly enhances the stability. Therefore, HPLC-purified SIBLINKS were immediately transferred to CHCl3 for storage. In an aqueous environment, the stability is enhanced when incorporated into vesicles or Triton micelles. The following are representative spectral data for lipids 1b, 1c, 1d and 1e containing a decanoyl (C10) chain moiety at the sn-1 position.

[6] = molecular target: PLA2 obtained from cobra venom (N. naja naja) (Naja naja, UniProt P15445); assay type: biochemical
[7] = molecular target: phospholipase A2 obtained from cobra venom (Naja naja naja) (Naja naja, UniProt P15445); assay type: biochemical
Sequence of phospholipase A2 obtained from cobra venom (Naja naja naja) (P15445 whole entry, looked up): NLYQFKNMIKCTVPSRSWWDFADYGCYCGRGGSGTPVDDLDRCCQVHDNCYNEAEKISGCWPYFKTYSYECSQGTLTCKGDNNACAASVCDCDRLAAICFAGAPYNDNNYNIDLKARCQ

Sequence of PLA2 obtained from cobra venom (N. naja naja) (P15445 whole entry, looked up): as above
Sequence of phospholipase A2 obtained from cobra venom (P15445 whole entry, looked up): as above
Sequence of bee venom phospholipase A2 (PLA2) (P00630 34-167 limits assumed): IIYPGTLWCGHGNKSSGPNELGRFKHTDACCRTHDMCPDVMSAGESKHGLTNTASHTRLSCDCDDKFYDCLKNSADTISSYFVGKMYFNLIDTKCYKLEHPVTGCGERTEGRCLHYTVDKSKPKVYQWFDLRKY
Sequence of cobra venom phospholipase A2 (PLA2) (P15445 whole entry, looked up): as the sequence (P15445 whole entry, looked up) above

CC1=C(CC/C(C)=C/CCC2=CC[C@H](C3=CC(=O)O[C@H]3O)O[C@H]2O)C(C)(C)CCC1 [manoalide]
anti-inflammatory activity [1]: anti-inflammatory activity in vivo | mode of PLA2 inactivation (PLA2): time-dependent irreversible inactivation | inhibition of cobra venom PLA2 [2]: inhibitor of both cobra and bee venom phospholipase A2 | inhibition of bee venom PLA2 [3]: inhibitor of both cobra and bee venom phospholipase A2

CCCCCCCCCC(=O)OC[C@H](COP(=O)([O-])OCC[N+](C)(C)C)OC(=O)CCC(=O)Oc1ccc([N+](=O)[O-])cc1 [1d]
concentration below which mixed micelles do not inhibit [4]: 20 NM | effect on P of raising preincubation temperature [4]: did increase P | effect on inactivation time course of raising preincubation temperature [4]: little effect | efficiency of enzymatic deactivation (suicide inhibition) [4]: less efficient, but is processed faster | ratio of inhibitor/PLA2 needed to observe inhibition [4]: > 40 | stability of p-nitrophenyl ester [5]: especially prone to hydrolysis | V, initial velocity for release of p-nitrophenol [6]: 0.6 µmol/min/mg

CCCCCCCCCC(=O)OC[C@H](COP(=O)([O-])OCC[N+](C)(C)C)OC(=O)CCC(C)(C)C(=O)Oc1ccc([N+](=O)[O-])cc1 [compound 1b]
effect on P of raising preincubation temperature [4]: did increase P | effect on inactivation time course of raising preincubation temperature [4]: little effect | efficiency of enzymatic deactivation (suicide inhibition) [4]: more efficient suicide inhibitors | V, initial velocity for release of p-nitrophenol [6]: 0.11 µmol/min/mg

CCCCCCCCCC(=O)OC[C@H](COP(=O)([O-])OCC[N+](C)(C)C)OC(=O)CC(C)(C)C(=O)Oc1ccc([N+](=O)[O-])cc1 [1e]
efficiency of enzymatic deactivation (suicide inhibition) [4]: more efficient suicide inhibitors | V, initial velocity for release of p-nitrophenol [6]: 0.005 µmol/min/mg

CCCCCCCCCC(=O)OC[C@H](COP(=O)([O-])OCC[N+](C)(C)C)OC(=O)CCCC(=O)Oc1ccc([N+](=O)[O-])cc1 [compound 1a]
stability of p-nitrophenyl ester [5]: especially prone to hydrolysis | change of hydrolysis rate with Triton/phospholipid surface ratio [7]: diminishes three-fold | concentration of substrate required to reach half saturation, versus DPPC [7]: lower concentration of substrate | V, initial velocity for release of p-nitrophenol [6]: 155 µmol/min/mg

CCCCCCCCCC(=O)OC[C@H](COP(=O)([O-])OCC[N+](C)(C)C)OC(=O)CC(C)(C)CC(=O)Oc1ccc([N+](=O)[O-])cc1 [1c]
efficiency of enzymatic deactivation (suicide inhibition) [4]: more efficient suicide inhibitors | V, initial velocity for release of p-nitrophenol [6]: 0.002 µmol/min/mg
